Results from ChEMBL document CHEMBL5376011, “Discovery of Anti-Hypercholesterolemia Agents Targeting LXRα from Marine Microorganism-Derived Natural Products” (J Nat Prod, 2024).
pKd: −log10 of the molar value. Activity calls are given as the source filed them. No cut-off for these calls is given here.

Key:
Mus musculus [1] = assay: Antihypercholesterolemic activity against high cholesterol diet fed C57BL/6J mouse assessed as reduction in degree of hepatic steatosis at 300 microg/kg, ip administered every 2 days for 15 days by Oil red staining based analysis; format: functional, organism-based; details: dose 300.0 µg/kg, time 15.0 day
HepG2 [2] = assay: Effect on LXRbeta mRNA expression in human HepG2 cells at 25 uM incubated for 24 hrs by RT-qPCR analysis; format: functional, cell-based
Mus musculus [3] = assay: Antihypercholesterolemic activity against high cholesterol diet fed LXRalpha knockout C57BL/6J mouse assessed as improvement in hepatic steatosis at 300 microg/kg, ip administered every 2 days for 15 days by H&E staining based analysis; format: functional, organism-based; details: dose 300.0 µg/kg, time 15.0 day
Mus musculus [4] = assay: Antihypercholesterolemic activity against high cholesterol diet fed C57BL/6J mouse assessed as reduction in SCD1 protein level at 300 microg/kg, ip administered every 2 days for 15 days by Western blot analysis; format: functional, organism-based; details: dose 300.0 µg/kg, time 15.0 day
Mus musculus [5] = assay: Antihypercholesterolemic activity against high cholesterol diet induced C57BL/6J mouse assessed as reduction in plasma low-density lipoprotein cholesterol level at 300 microg/kg, ip administered every 2 days for 15 days; format: functional, organism-based; details: dose 300.0 µg/kg, time 15.0 day
Mus musculus [6] = assay: Antihypercholesterolemic activity against high cholesterol diet induced C57BL/6J mouse assessed as reduction in serum aspartate aminotransferase level at 300 microg/kg, ip administered every 2 days for 15 days; format: functional, organism-based; details: dose 300.0 µg/kg, time 15.0 day
Mus musculus [7] = assay: Antihypercholesterolemic activity against high cholesterol diet fed C57BL/6J mouse assessed as improvement in hepatocyte liposis at 300 microg/kg, ip administered every 2 days for 15 days by H&E staining based analysis; format: functional, organism-based; details: dose 300.0 µg/kg, time 15.0 day
Mus musculus [8] = assay: Antihypercholesterolemic activity against high cholesterol diet fed LXRalpha knockout C57BL/6J mouse assessed as improvement in hepatocellular degeneration at 300 microg/kg, ip administered every 2 days for 15 days by Oil red staining based analysis; format: functional, organism-based; details: dose 300.0 µg/kg, time 15.0 day
Mus musculus [9] = assay: Antihypercholesterolemic activity against high cholesterol diet induced C57BL/6J mouse assessed as reduction in serum alanine aminotransferase level at 300 microg/kg, ip administered every 2 days for 15 days; format: functional, organism-based; details: dose 300.0 µg/kg, time 15.0 day
Mus musculus [10] = assay: Antihypercholesterolemic activity against high cholesterol diet fed LXRalpha knockout C57BL/6J mouse assessed as reduction in serum low density lipoprotein cholesterol level at 300 microg/kg, ip administered every 2 days for 15 days; format: functional, organism-based; details: dose 300.0 µg/kg, time 15.0 day
HepG2 [11] = assay: (§1) Improvement of lipid metabolism in palmitic acid and oleic acid induced human HepG2 cell model of hepatic steatosis assessed as reduction in triglyceride level at 25 uM preincubated with palmitic acid and oleic acid for 48 hrs followed by compound addition and measured after 24 hrs; format: functional, cell-based
Mus musculus [12] = assay: Antihypercholesterolemic activity against high cholesterol diet fed C57BL/6J mouse assessed as reduction of fine vacuoles in the cytoplasm at 300 microg/kg, ip administered every 2 days for 15 days by H&E staining based analysis; format: functional, organism-based; details: dose 300.0 µg/kg, time 15.0 day
Mus musculus [13] = assay: Antihypercholesterolemic activity against high cholesterol diet fed LXRalpha knockout C57BL/6J mouse assessed as reduction in serum alanine aminotransferase level at 300 microg/kg, ip administered every 2 days for 15 days; format: functional, organism-based; details: dose 300.0 µg/kg, time 15.0 day
HepG2 [14] = assay: as §1, with “reduction in lipid droplets at 25” for “reduction in triglyceride level at 25”, “24 hrs by Oil Red O staining based analysis” for “24 hrs”; format: functional
Mus musculus [15] = assay: Antihypercholesterolemic activity against high cholesterol diet fed LXRalpha knockout C57BL/6J mouse assessed as improvement in hepatic steatosis at 300 microg/kg, ip administered every 2 days for 15 days by Oil red staining based analysis; format: functional, organism-based; details: dose 300.0 µg/kg, time 15.0 day
Mus musculus [16] = assay: Antihypercholesterolemic activity against high cholesterol diet fed C57BL/6J mouse assessed as reduction in degree of hepatic steatosis at 300 microg/kg, ip administered every 2 days for 15 days by H&E staining based analysis; format: functional, organism-based; details: dose 300.0 µg/kg, time 15.0 day
Mus musculus [17] = assay: Antihypercholesterolemic activity against high cholesterol diet fed LXRalpha knockout C57BL/6J mouse assessed as improvement in liver lipid droplet accumulation at 300 microg/kg, ip administered every 2 days for 15 days by H&E staining based analysis; format: functional, organism-based; details: dose 300.0 µg/kg, time 15.0 day
Mus musculus [18] = assay: Antihypercholesterolemic activity against high cholesterol diet fed C57BL/6J mouse assessed as reduction in FASN protein level at 300 microg/kg, ip administered every 2 days for 15 days by Western blot analysis; format: functional, organism-based; details: dose 300.0 µg/kg, time 15.0 day
Mus musculus [19] = assay: Antihypercholesterolemic activity against high cholesterol diet fed LXRalpha knockout C57BL/6J mouse assessed as reduction in serum aspartate aminotransferase level at 300 microg/kg, ip administered every 2 days for 15 days; format: functional, organism-based; details: dose 300.0 µg/kg, time 15.0 day
[20] = biological target: T1, Oxysterols receptor LXR-alpha (Homo sapiens) (UniProt Q13133); assay: Agonist activity at LXRalpha in human HepG2 cells assessed as upregulation of CYP7A1 protein expression level at 25 uM incubated for 24 hrs by Western blot analysis; format: cell-based; details: filed as agonist
T1 sequence (whole entry): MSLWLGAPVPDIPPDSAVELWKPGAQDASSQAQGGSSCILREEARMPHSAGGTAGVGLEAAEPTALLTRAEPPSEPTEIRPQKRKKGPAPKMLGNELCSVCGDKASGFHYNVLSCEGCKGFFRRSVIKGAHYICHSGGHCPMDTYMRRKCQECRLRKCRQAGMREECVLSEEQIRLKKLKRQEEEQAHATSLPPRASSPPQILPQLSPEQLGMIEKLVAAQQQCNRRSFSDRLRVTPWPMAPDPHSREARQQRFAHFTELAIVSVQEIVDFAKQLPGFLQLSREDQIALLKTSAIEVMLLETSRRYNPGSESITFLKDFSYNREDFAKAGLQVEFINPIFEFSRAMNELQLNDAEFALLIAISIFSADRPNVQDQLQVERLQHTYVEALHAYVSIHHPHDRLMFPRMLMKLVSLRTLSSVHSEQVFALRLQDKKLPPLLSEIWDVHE

Mus musculus [21] = assay: Antihypercholesterolemic activity against high cholesterol diet induced C57BL/6J mouse assessed as reduction in hepatocyte damage at 300 microg/kg, ip administered every 2 days for 15 days; format: functional, organism-based; details: dose 300.0 µg/kg, time 15.0 day
Mus musculus [22] = assay: Antihypercholesterolemic activity against high cholesterol diet fed LXRalpha knockout C57BL/6J mouse assessed as reduction in serum triglycerides level at 300 microg/kg, ip administered every 2 days for 15 days; format: functional, organism-based; details: dose 300.0 µg/kg, time 15.0 day
Mus musculus [23] = assay: Antihypercholesterolemic activity against high cholesterol diet fed C57BL/6J mouse assessed as improvement in hepatocyte degeneration at 300 microg/kg, ip administered every 2 days for 15 days by Oil red staining based analysis; format: functional, organism-based; details: dose 300.0 µg/kg, time 15.0 day
[24] = biological target: T1, Oxysterols receptor LXR-alpha (Homo sapiens); assay: Agonist activity at LXRalpha in human HepG2 cells assessed as upregulation of ABCA1 mRNA expression by measuring fold change at 25 uM incubated for 24 hrs by RT-qPCR analysis; format: cell-based; details: filed as agonist
Mus musculus [25] = assay: Antihypercholesterolemic activity against high cholesterol diet fed C57BL/6J mouse assessed as reduction in SREBP1 protein level at 300 microg/kg, ip administered every 2 days for 15 days by Western blot analysis; format: functional, organism-based; details: dose 300.0 µg/kg, time 15.0 day
Mus musculus [26] = assay: Antihypercholesterolemic activity against high cholesterol diet fed LXRalpha knockout C57BL/6J mouse assessed as upregulation in CYP7A1 protein level at 300 microg/kg, ip administered every 2 days for 15 days by Western blot analysis; format: functional, organism-based; details: dose 300.0 µg/kg, time 15.0 day
Mus musculus [27] = assay: Antihypercholesterolemic activity against high cholesterol diet induced C57BL/6J mouse assessed as reduction in total cholesterol level in plasma at 300 microg/kg, ip administered every 2 days for 15 days; format: functional, organism-based; details: dose 300.0 µg/kg, time 15.0 day
Mus musculus [28] = assay: Antihypercholesterolemic activity against high cholesterol diet fed C57BL/6J mouse assessed as reduction in hepatocyte lysis necrosis at 300 microg/kg, ip administered every 2 days for 15 days by Oil red staining based analysis; format: functional, organism-based; details: dose 300.0 µg/kg, time 15.0 day
Mus musculus [29] = assay: Antihypercholesterolemic activity against high cholesterol diet fed LXRalpha knockout C57BL/6J mouse assessed as upregulation in ABCA1 protein level at 300 microg/kg, ip administered every 2 days for 15 days by Western blot analysis; format: functional, organism-based; details: dose 300.0 µg/kg, time 15.0 day
Mus musculus [30] = assay: Antihypercholesterolemic activity against high cholesterol diet fed C57BL/6J mouse assessed as improvement in hepatocyte degeneration at 300 microg/kg, ip administered every 2 days for 15 days by H&E staining based analysis; format: functional, organism-based; details: dose 300.0 µg/kg, time 15.0 day
Mus musculus [31] = assay: Antihypercholesterolemic activity against high cholesterol diet fed C57BL/6J mouse assessed as improvement in hepatocyte liposis at 300 microg/kg, ip administered every 2 days for 15 days by Oil red staining based analysis; format: functional, organism-based; details: dose 300.0 µg/kg, time 15.0 day
Mus musculus [32] = assay: Antihypercholesterolemic activity against high cholesterol diet fed LXRalpha knockout C57BL/6J mouse assessed as improvement in hepatocellular degeneration at 300 microg/kg, ip administered every 2 days for 15 days by H&E staining based analysis; format: functional, organism-based; details: dose 300.0 µg/kg, time 15.0 day
HepG2 [33] = assay: Improvement of lipid metabolism in palmitic acid and oleic acid induced human HepG2 cell model of hepatic steatosis assessed as reduction in total cellular cholesterol level at 25 uM preincubated with palmitic acid and oleic acid for 48 hrs followed by compound addition and measured after 24 hrs; format: functional, cell-based
[34] = biological target: T1, Oxysterols receptor LXR-alpha (Homo sapiens); assay: Agonist activity at LXRalpha in human HepG2 cells assessed as upregulation of ABCA1 protein expression level at 25 uM incubated for 24 hrs by Western blot analysis; format: cell-based; details: filed as agonist
Mus musculus [35] = assay: Antihypercholesterolemic activity against high cholesterol diet fed LXRalpha knockout C57BL/6J mouse assessed as improvement in liver lipid droplet accumulation at 300 microg/kg, ip administered every 2 days for 15 days by Oil red staining based analysis; format: functional, organism-based; details: dose 300.0 µg/kg, time 15.0 day
Mus musculus [36] = assay: Antihypercholesterolemic activity against high cholesterol diet fed C57BL/6J mouse assessed as reduction in hepatocyte lysis necrosis at 300 microg/kg, ip administered every 2 days for 15 days by H&E staining based analysis; format: functional, organism-based; details: dose 300.0 µg/kg, time 15.0 day
[37] = Cytotoxicity against human HepG2 cells assessed as reduction in cell viability incubated for 24 hrs by CCK8 assay; format: toxicity, cell-based
Mus musculus [38] = assay: Antihypercholesterolemic activity against high cholesterol diet fed LXRalpha knockout C57BL/6J mouse assessed as reduction in serum total cholesterol level at 300 microg/kg, ip administered every 2 days for 15 days; format: functional, organism-based; details: dose 300.0 µg/kg, time 15.0 day
HepG2 [39] = assay: Effect on ABCG1 mRNA expression in human HepG2 cells at 25 uM incubated for 24 hrs by RT-qPCR analysis; format: functional, cell-based
Mus musculus [40] = assay: Antihypercholesterolemic activity against high cholesterol diet fed C57BL/6J mouse assessed as reduction of fine vacuoles in the cytoplasm at 300 microg/kg, ip administered every 2 days for 15 days by Oil red staining based analysis; format: functional, organism-based; details: dose 300.0 µg/kg, time 15.0 day
Mus musculus [41] = assay: Antihypercholesterolemic activity against high cholesterol diet fed LXRalpha knockout C57BL/6J mouse assessed as reduction in serum high density lipoprotein cholesterol level at 300 microg/kg, ip administered every 2 days for 15 days; format: functional, organism-based; details: dose 300.0 µg/kg, time 15.0 day
[42] = biological target: T2, Oxysterols receptor LXR-alpha (Homo sapiens, UniProt Q13133); assay: Binding affinity to full length human LXRalpha assessed as dissociation constant by SPR analysis
T2 sequence (Q13133 whole entry): T1 sequence (whole entry)

[43] = biological target: T1, Oxysterols receptor LXR-alpha (Homo sapiens); assay: Agonist activity at LXRalpha in human HepG2 cells assessed as upregulation of CYP7A1 mRNA expression by measuring fold change at 25 uM incubated for 24 hrs by RT-qPCR analysis; format: cell-based; details: filed as agonist

COc1ccc2c(C[C@@H]3NC(=O)[C@@H]4CCCN4C3=O)c(CC=C(C)C)[nH]c2c1 [TRYPROSTATIN A]
Activity (Mus musculus [1]): Active
Activity (HepG2 [2]): inactive
Activity (Mus musculus [3]): Active
Activity (Mus musculus [4]): Active
Activity (Mus musculus [5]): Active
Activity (Mus musculus [6]): Active
Activity (Mus musculus [7]): Active
Activity (Mus musculus [8]): Active
Activity (Mus musculus [9]): Active
Activity (Mus musculus [10]): inactive
Activity (HepG2 [11]): Active
Activity (Mus musculus [12]): Active
Activity (Mus musculus [13]): inactive
Activity (HepG2 [14]): Active
Activity (Mus musculus [15]): Active
Activity (Mus musculus [16]): Active
Activity (Mus musculus [17]): Active
Activity (Mus musculus [18]): Active
Activity (Mus musculus [19]): inactive
Activity [20]: Active
Activity (Mus musculus [21]): Active
Activity (Mus musculus [22]): inactive
Activity (Mus musculus [23]): Active
fold change (FC) [24]: 2.05
Activity (Mus musculus [25]): Active
Activity (Mus musculus [26]): inactive
Activity (Mus musculus [27]): Active
Activity (Mus musculus [28]): Active
Activity (Mus musculus [29]): inactive
Activity (Mus musculus [30]): Active
Activity (Mus musculus [31]): Active
Activity (Mus musculus [32]): Active
Activity (HepG2 [33]): Active
Activity [34]: Active
Activity (Mus musculus [35]): Active
Activity (Mus musculus [36]): Active
IC50 at 24 h [37]: > 50 µM
Activity (Mus musculus [38]): inactive
Activity (HepG2 [39]): inactive
Activity (Mus musculus [40]): Active
Activity (Mus musculus [41]): inactive
pKd [42]: 7.99
fold change (FC) [43]: 5.01
